Source: the NIST ThermoML archive (doi:10.1021/je900077g)

Assay: excess molar enthalpy (molar enthalpy of mixing); xn = mol fraction of the nth substance listed
Details: 308.15 K, 101 kPa, Liquid, Calvet calorimetry

C1COCCO1 [1,4-dioxane] + C1CCCCC1
Details | excess molar enthalpy [kcal/mol]
x2 = 0.101 | 0.136
x2 = 0.204 | 0.251
x2 = 0.288 | 0.319
x2 = 0.408 | 0.374
x2 = 0.506 | 0.3872
x2 = 0.606 | 0.376
x2 = 0.705 | 0.343
x2 = 0.803 | 0.275
x2 = 0.9 | 0.166

C1CCOCC1 [tetrahydropyran] + C1CCCCC1
Details | excess molar enthalpy [kcal/mol]
x2 = 0.101 | 0.0375
x2 = 0.2 | 0.0703
x2 = 0.3 | 0.0985
x2 = 0.4 | 0.117
x2 = 0.499 | 0.126
x2 = 0.606 | 0.124
x2 = 0.699 | 0.11
x2 = 0.8 | 0.0848
x2 = 0.9 | 0.0473

C1CCOCC1 [tetrahydropyran] + C1COCCO1
Details | excess molar enthalpy [kcal/mol]
x1 = 0.104 | 0.0356
x1 = 0.201 | 0.0595
x1 = 0.299 | 0.0753
x1 = 0.398 | 0.0841
x1 = 0.497 | 0.0863
x1 = 0.612 | 0.0817
x1 = 0.716 | 0.0707
x1 = 0.8 | 0.0562
x1 = 0.9 | 0.0323
